# Molecular target: T1, Vtc1/Vtc3/Vtc4 complex (VTC complex) (Saccharomyces cerevisiae, UniProt P47075+Q02725)
# T1 construct: full-length subunits co-expressed in Expi293F; Vtc1 C-terminal HA, Vtc3 N-terminal 3xFlag, Vtc4 C-terminal 2xStrep; detergent-purified; 3:1:1 pentamer; with Vacuolar transporter chaperone complex subunit 1
# T1 sequence (P47075 1-721): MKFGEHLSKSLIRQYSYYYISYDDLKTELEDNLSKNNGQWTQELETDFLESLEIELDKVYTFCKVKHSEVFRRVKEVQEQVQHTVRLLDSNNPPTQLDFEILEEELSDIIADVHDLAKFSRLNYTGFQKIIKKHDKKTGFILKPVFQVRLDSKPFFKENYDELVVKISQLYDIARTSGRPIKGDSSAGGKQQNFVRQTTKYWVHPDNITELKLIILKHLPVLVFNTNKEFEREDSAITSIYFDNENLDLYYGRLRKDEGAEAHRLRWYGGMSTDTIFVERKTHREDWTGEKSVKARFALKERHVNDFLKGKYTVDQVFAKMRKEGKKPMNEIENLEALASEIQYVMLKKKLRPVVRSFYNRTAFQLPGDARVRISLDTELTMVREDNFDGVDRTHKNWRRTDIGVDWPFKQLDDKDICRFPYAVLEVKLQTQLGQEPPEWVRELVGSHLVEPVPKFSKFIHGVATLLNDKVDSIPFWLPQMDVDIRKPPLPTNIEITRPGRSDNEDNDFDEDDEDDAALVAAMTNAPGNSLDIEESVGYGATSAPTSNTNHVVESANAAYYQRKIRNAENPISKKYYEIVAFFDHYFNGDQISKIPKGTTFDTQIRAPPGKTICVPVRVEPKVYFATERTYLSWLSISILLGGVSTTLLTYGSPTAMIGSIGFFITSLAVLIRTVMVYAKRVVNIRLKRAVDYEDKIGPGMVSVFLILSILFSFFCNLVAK
# T1 sequence (Q02725 1-835): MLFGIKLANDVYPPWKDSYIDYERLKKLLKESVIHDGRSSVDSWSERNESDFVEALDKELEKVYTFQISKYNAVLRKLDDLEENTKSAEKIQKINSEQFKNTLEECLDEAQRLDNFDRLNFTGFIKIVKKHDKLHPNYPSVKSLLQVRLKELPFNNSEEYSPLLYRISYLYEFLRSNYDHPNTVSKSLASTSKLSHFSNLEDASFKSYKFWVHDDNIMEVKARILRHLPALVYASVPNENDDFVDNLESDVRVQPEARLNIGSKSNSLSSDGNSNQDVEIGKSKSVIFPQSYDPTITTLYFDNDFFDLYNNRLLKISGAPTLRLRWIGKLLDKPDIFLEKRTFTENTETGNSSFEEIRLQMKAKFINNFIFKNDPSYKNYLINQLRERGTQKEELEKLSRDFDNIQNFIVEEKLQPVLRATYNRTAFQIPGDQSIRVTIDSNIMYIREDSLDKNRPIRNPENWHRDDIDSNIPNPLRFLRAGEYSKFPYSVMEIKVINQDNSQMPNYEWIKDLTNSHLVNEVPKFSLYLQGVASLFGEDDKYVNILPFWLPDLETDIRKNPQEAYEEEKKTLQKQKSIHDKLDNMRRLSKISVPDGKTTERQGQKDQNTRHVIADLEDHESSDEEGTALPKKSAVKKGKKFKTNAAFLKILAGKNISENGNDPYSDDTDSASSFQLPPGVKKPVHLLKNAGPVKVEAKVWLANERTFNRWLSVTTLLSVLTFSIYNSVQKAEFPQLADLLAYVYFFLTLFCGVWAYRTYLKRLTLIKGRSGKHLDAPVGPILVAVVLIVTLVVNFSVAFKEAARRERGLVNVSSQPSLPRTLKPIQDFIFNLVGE
# T1 sequence (P40046 22-129 partner): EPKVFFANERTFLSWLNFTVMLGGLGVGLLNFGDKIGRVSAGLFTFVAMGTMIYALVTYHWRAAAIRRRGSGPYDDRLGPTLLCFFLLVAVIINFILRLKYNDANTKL
# Experiment: polyP synthesis, TBE-PAGE; smFRET
# Format: biochemical
# Settings: 1 mM InsP6; activator; deletion of Vtc1 N-terminus
smiles,measurement,value
O=P(O)(O)O[C@H]1[C@H](OP(=O)(O)O)[C@@H](OP(=O)(O)O)[C@H](OP(=O)(O)O)[C@@H](OP(=O)(O)O)[C@H]1OP(=O)(O)O [InsP6],"polyP synthesis, TBE-PAGE; smFRET",mutant VTC complex that can no longer be activated by the InsP6 stimulus

# — publication PMC9911596 (Nature Communications, 2023)
